From the NIST ThermoML archive (doi:10.1016/j.fluid.2006.09.024)
± gives the expanded uncertainty stated by the source.

Tests used:
[1] = Liquid, Ebulliometric method (Recirculating still)
[2] = xn = mol fraction of the nth substance listed; conditions: 101 kPa, Liquid

In the case of `C1C[C@@H]2[C@@H]3CC[C@@H](C3)[C@@H]2C1` [endo-tetrahydrodicyclopentadiene], the “vapor or sublimation pressure” value ([1]; 344.02 K) is reported as 2 ± 0.2 kPa, the “vapor or sublimation pressure” value ([1]; 358.17 K) is reported as 3.5 ± 0.2 kPa and the “vapor or sublimation pressure” value ([1]; 367.23 K) is reported as 5 ± 0.2 kPa. The “vapor or sublimation pressure” value ([1]; 384.68 K) was 10 ± 0.2 kPa, the “vapor or sublimation pressure” value ([1]; 396.77 K) was 15 ± 0.2 kPa and the “vapor or sublimation pressure” value ([1]; 405.51 K) was 20 ± 0.2 kPa. The “vapor or sublimation pressure” value ([1]; 412.5 K) was 25 ± 0.2 kPa, the “vapor or sublimation pressure” value ([1]; 418.51 K) was 30 ± 0.2 kPa and the “vapor or sublimation pressure” value ([1]; 423.84 K) was 35 ± 0.2 kPa. For the same compound, the “vapor or sublimation pressure” value ([1]; 428.42 K) was 40 ± 0.2 kPa, the “vapor or sublimation pressure” value ([1]; 432.64 K) was 45 ± 0.2 kPa and the “vapor or sublimation pressure” value ([1]; 436.48 K) was 50 ± 0.2 kPa. The “vapor or sublimation pressure” value ([1]; 440.06 K) was 55 ± 0.2 kPa, the “vapor or sublimation pressure” value ([1]; 443.43 K) was 60 ± 0.2 kPa and the “vapor or sublimation pressure” value ([1]; 446.4 K) was 65 ± 0.2 kPa. For the same compound, the “vapor or sublimation pressure” value ([1]; 451.93 K) was 75 ± 0.2 kPa, the “vapor or sublimation pressure” value ([1]; 454.45 K) was 80 ± 0.2 kPa and the “vapor or sublimation pressure” value ([1]; 456.82 K) was 85 ± 0.2 kPa. For the same compound, the “vapor or sublimation pressure” value ([1]; 458.86 K) was 90 ± 0.2 kPa, the “vapor or sublimation pressure” value ([1]; 460.9 K) was 95 ± 0.2 kPa and the “vapor or sublimation pressure” value ([1]; 462.76 K) was 100 ± 0.2 kPa. For the same compound, the “vapor or sublimation pressure” value ([1]; 463.6 K) was 101.6 ± 0.2 kPa.
Work on `C1C[C@@H]2[C@@H]3CC[C@@H](C3)[C@@H]2C1` [endo-tetrahydrodicyclopentadiene] + C1C[C@@H]2[C@H]3CC[C@H](C3)[C@@H]2C1 yielded a kinematic viscosity ([2]; 288.15 K, x2 = 0.4028) of 6.06e-06 ± 1.6e-07 m2/s, a mass density ([2]; 288.15 K, x2 = 0.4028) of 954.39 ± 0.27 kg/m3 and a kinematic viscosity ([2]; 288.15 K, x2 = 0.5145) of 5.23e-06 ± 1.5e-07 m2/s. For the same compound, the mass density ([2]; 288.15 K, x2 = 0.5145) was 951.54 ± 0.27 kg/m3, the kinematic viscosity ([2]; 288.15 K, x2 = 0.6017) was 4.62e-06 ± 1.3e-07 m2/s and the mass density ([2]; 288.15 K, x2 = 0.6017) was 949.22 ± 0.28 kg/m3. The kinematic viscosity ([2]; 288.15 K, x2 = 0.6956) was 4.18e-06 ± 1.2e-07 m2/s, the mass density ([2]; 288.15 K, x2 = 0.6956) was 946.72 ± 0.28 kg/m3 and the kinematic viscosity ([2]; 288.15 K, x2 = 0.7966) was 3.86e-06 ± 1.1e-07 m2/s. It also gave a mass density ([2]; 288.15 K, x2 = 0.7966) of 944.23 ± 0.29 kg/m3, a kinematic viscosity ([2]; 288.15 K, x2 = 0.9069) of 3.47e-06 ± 1e-07 m2/s and a mass density ([2]; 288.15 K, x2 = 0.9069) of 941.57 ± 0.29 kg/m3. For the same compound, the kinematic viscosity ([2]; 288.15 K, x2 = 0.9933) was 3.18e-06 ± 9.2e-08 m2/s, the mass density ([2]; 288.15 K, x2 = 0.9933) was 939.58 ± 0.29 kg/m3 and the kinematic viscosity ([2]; 298.15 K, x2 = 0.4028) was 4.7e-06 ± 1.3e-07 m2/s. It also gave a mass density ([2]; 298.15 K, x2 = 0.4028) of 946.44 ± 0.29 kg/m3, a kinematic viscosity ([2]; 298.15 K, x2 = 0.5145) of 4.1e-06 ± 1.2e-07 m2/s and a mass density ([2]; 298.15 K, x2 = 0.5145) of 943.63 ± 0.29 kg/m3. It also gave a kinematic viscosity ([2]; 298.15 K, x2 = 0.6017) of 3.68e-06 ± 1.1e-07 m2/s, a mass density ([2]; 298.15 K, x2 = 0.6017) of 941.29 ± 0.29 kg/m3 and a kinematic viscosity ([2]; 298.15 K, x2 = 0.6956) of 3.35e-06 ± 9.7e-08 m2/s. For the same compound, the mass density ([2]; 298.15 K, x2 = 0.6956) was 938.85 ± 0.3 kg/m3, the kinematic viscosity ([2]; 298.15 K, x2 = 0.7966) was 3.06e-06 ± 8.9e-08 m2/s and the mass density ([2]; 298.15 K, x2 = 0.7966) was 936.36 ± 0.3 kg/m3. It also gave a kinematic viscosity ([2]; 298.15 K, x2 = 0.9069) of 2.82e-06 ± 8.2e-08 m2/s, a mass density ([2]; 298.15 K, x2 = 0.9069) of 933.78 ± 0.31 kg/m3 and a kinematic viscosity ([2]; 298.15 K, x2 = 0.9933) of 2.65e-06 ± 7.8e-08 m2/s. It also gave a mass density ([2]; 298.15 K, x2 = 0.9933) of 931.79 ± 0.31 kg/m3, a kinematic viscosity ([2]; 308.15 K, x2 = 0.4028) of 3.67e-06 ± 1.1e-07 m2/s and a mass density ([2]; 308.15 K, x2 = 0.4028) of 938.48 ± 0.3 kg/m3. The kinematic viscosity ([2]; 308.15 K, x2 = 0.5145) was 3.23e-06 ± 9.4e-08 m2/s, the mass density ([2]; 308.15 K, x2 = 0.5145) was 935.68 ± 0.31 kg/m3 and the kinematic viscosity ([2]; 308.15 K, x2 = 0.6017) was 2.96e-06 ± 8.6e-08 m2/s. For the same compound, the mass density ([2]; 308.15 K, x2 = 0.6017) was 933.37 ± 0.31 kg/m3, the kinematic viscosity ([2]; 308.15 K, x2 = 0.6956) was 2.72e-06 ± 8e-08 m2/s and the mass density ([2]; 308.15 K, x2 = 0.6956) was 930.9 ± 0.31 kg/m3. For the same compound, the kinematic viscosity ([2]; 308.15 K, x2 = 0.7966) was 2.49e-06 ± 7.3e-08 m2/s, the mass density ([2]; 308.15 K, x2 = 0.7966) was 928.49 ± 0.32 kg/m3 and the kinematic viscosity ([2]; 308.15 K, x2 = 0.9069) was 2.31e-06 ± 6.8e-08 m2/s. It also gave a mass density ([2]; 308.15 K, x2 = 0.9069) of 925.9 ± 0.32 kg/m3, a kinematic viscosity ([2]; 308.15 K, x2 = 0.9933) of 2.22e-06 ± 6.6e-08 m2/s and a mass density ([2]; 308.15 K, x2 = 0.9933) of 923.99 ± 0.32 kg/m3. The kinematic viscosity ([2]; 318.15 K, x2 = 0.4028) was 2.99e-06 ± 8.7e-08 m2/s, the mass density ([2]; 318.15 K, x2 = 0.4028) was 930.47 ± 0.32 kg/m3 and the kinematic viscosity ([2]; 318.15 K, x2 = 0.5145) was 2.67e-06 ± 7.8e-08 m2/s. For the same compound, the mass density ([2]; 318.15 K, x2 = 0.5145) was 927.69 ± 0.32 kg/m3, the kinematic viscosity ([2]; 318.15 K, x2 = 0.6017) was 2.46e-06 ± 7.3e-08 m2/s and the mass density ([2]; 318.15 K, x2 = 0.6017) was 925.41 ± 0.33 kg/m3. It also gave a kinematic viscosity ([2]; 318.15 K, x2 = 0.6956) of 2.29e-06 ± 6.8e-08 m2/s, a mass density ([2]; 318.15 K, x2 = 0.6956) of 923 ± 0.33 kg/m3 and a kinematic viscosity ([2]; 318.15 K, x2 = 0.7966) of 2.12e-06 ± 6.3e-08 m2/s. The mass density ([2]; 318.15 K, x2 = 0.7966) was 920.59 ± 0.33 kg/m3, the kinematic viscosity ([2]; 318.15 K, x2 = 0.9069) was 1.97e-06 ± 5.9e-08 m2/s and the mass density ([2]; 318.15 K, x2 = 0.9069) was 918.06 ± 0.34 kg/m3. It also gave a kinematic viscosity ([2]; 318.15 K, x2 = 0.9933) of 1.87e-06 ± 5.6e-08 m2/s and a mass density ([2]; 318.15 K, x2 = 0.9933) of 916.14 ± 0.34 kg/m3.
With `C1C[C@@H]2[C@H]3CC[C@H](C3)[C@@H]2C1` [exo-tetrahydrodicyclopentadiene] the “vapor or sublimation pressure” value ([1]; 335.45 K) was 2 ± 0.2 kPa, the “vapor or sublimation pressure” value ([1]; 349.97 K) was 3.5 ± 0.2 kPa and the “vapor or sublimation pressure” value ([1]; 360.37 K) was 5 ± 0.2 kPa. For the same compound, the “vapor or sublimation pressure” value ([1]; 379.33 K) was 10 ± 0.2 kPa, the “vapor or sublimation pressure” value ([1]; 391.56 K) was 15 ± 0.2 kPa and the “vapor or sublimation pressure” value ([1]; 400.07 K) was 20 ± 0.2 kPa. For the same compound, the “vapor or sublimation pressure” value ([1]; 407.31 K) was 25 ± 0.2 kPa, the “vapor or sublimation pressure” value ([1]; 413.28 K) was 30 ± 0.2 kPa and the “vapor or sublimation pressure” value ([1]; 418.87 K) was 35 ± 0.2 kPa. For the same compound, the “vapor or sublimation pressure” value ([1]; 423.1 K) was 40 ± 0.2 kPa, the “vapor or sublimation pressure” value ([1]; 427.5 K) was 45 ± 0.2 kPa and the “vapor or sublimation pressure” value ([1]; 431.46 K) was 50 ± 0.2 kPa. For the same compound, the “vapor or sublimation pressure” value ([1]; 434.98 K) was 55 ± 0.2 kPa, the “vapor or sublimation pressure” value ([1]; 438.26 K) was 60 ± 0.2 kPa and the “vapor or sublimation pressure” value ([1]; 441.37 K) was 65 ± 0.2 kPa. For the same compound, the “vapor or sublimation pressure” value ([1]; 444.02 K) was 70 ± 0.2 kPa, the “vapor or sublimation pressure” value ([1]; 447.09 K) was 75 ± 0.2 kPa and the “vapor or sublimation pressure” value ([1]; 449.62 K) was 80 ± 0.2 kPa. The “vapor or sublimation pressure” value ([1]; 452.19 K) was 85 ± 0.2 kPa, the “vapor or sublimation pressure” value ([1]; 454.39 K) was 90 ± 0.2 kPa and the “vapor or sublimation pressure” value ([1]; 456.75 K) was 95 ± 0.2 kPa. The “vapor or sublimation pressure” value ([1]; 458.83 K) was 100 ± 0.2 kPa and the “vapor or sublimation pressure” value ([1]; 459.38 K) was 101.4 ± 0.2 kPa.
